Here are results for 42 compounds from EP1724268A1, “COMPOUND HAVING TGF-BETA INHIBITORY ACTIVITY AND PHARMACEUTICAL COMPOSITION CONTAINING SAME” (KIRIN BEER KABUSHIKI KAISHA, priority 2004, dated 2005).

Read-outs that look alike come from different tables or passages of the source.

This assay relates to TGFβ signal. Description: TGFβ signal inhibitory activity, (SBE)4-Luc reporter in A549 cells (Test Examples 1A and 1B). As to conditions: Homo sapiens, A549, read-out: TGFβ inhibition rate, %. It counts as cell-based, human. Put shortly: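 Compounds at 3 µM and 10 µM (some 1 µM) were added with 2 ng/ml TGFβ-1 to A549 cells stably expressing an SBE-driven luciferase, then cultured 4 hr. Chemiluminescent luciferase signal gave % inhibition versus TGFβ-alone and no-TGFβ controls.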

The mark [1] stands for this setting: 3 µM, compounds of Reference Examples (Test Example 1B).
[2] abbreviates: 10 µM, compounds of Reference Examples (Test Example 1B).
Setting [3] is: test compound 3 µM, TGFβ-1 2 ng/ml, 4 hr, Table 1A.
The mark [4] stands for this setting: test compound 10 µM, TGFβ-1 2 ng/ml, 4 hr, Table 1A.
Setting [5] is: test compound 3 µM, Reference Examples, Table 1B.
Setting [6] is: test compound 10 µM, Reference Examples, Table 1B.

Broadly, the inhibition is the relative decrease from the control value, in per cent. `COc1cc2nccc(Oc3cc4ccccc4nc3-c3ccccc3)c2cc1OC` [Compound r283, 6,7-Dimethoxy-4-(2-phenyl-quinolin-3-yloxy)-quinoline]: under setting [1], the inhibition at 3 µM turned out to be 99%. The inhibition at 10 µM under setting [2] was determined as 100%. Taken in the same sequence, the figures for `COc1cc2nccc(Oc3cc4ccccc4nc3-c3ccc(F)cc3F)c2cc1OC` [r286] were 93% and 100%.

With `COc1cc2ncnc(Oc3cc(C)c(C)nc3-c3ncccn3)c2cc1OC` [Compound 51, 4-(5,6-Dimethyl-2-pyrimidin-2-yl-pyridin-3-yloxy)-6,7-dimethoxy-quinazoline], the inhibition at 3 µM under setting [3] came to 93%. Moreover, the inhibition at 10 µM under setting [4] was determined as 100%. For `Cc1cc(Oc2ccnc3ccccc23)c(-c2cccnc2)nc1C` [Compound 43, 5,6-Dimethyl-3-(quinolin-4-yloxy)-[2,3']bipyridine], the inhibition at 1 µM (test compound 1 µM, TGFβ-1 2 ng/ml, 4 hr, Table 1A) is 45%. In addition, under setting [3], the inhibition at 3 µM stood at 84%. As for `COc1cc2c(Oc3cc4cccnc4nc3C)ccnc2cc1OCCO` [Compound r400], the inhibition at 3 µM under setting [1] stood at 82%. In addition, the inhibition at 10 µM under setting [2] turned out to be 100%.

Consider `COc1cc2c(Oc3ccc(C)nc3-c3nccs3)ccnc2cc1OCC(CO)CO` [Compound r330], for which the inhibition at 3 µM under setting [1] amounted to 100%. The inhibition at 10 µM under setting [2] worked out at 100%.

Turning to `CCOC(=O)c1cc(-c2ccc(F)cc2F)ccc1Oc1ccnc2cc(OC)c(OC)cc12` [Compound r89], the inhibition at 3 µM under setting [5] amounted to 20%. The inhibition at 10 µM under setting [6] worked out at 63%. Taken in the same sequence, the figures for `CCOC(=O)/C(C)=C/c1cc(OC)ccc1Oc1ccnc2cc(OC)c(OC)cc12` [r8] were 10% and 59%. For the compound `COc1cncc(-c2nc(C)c(C)cc2Oc2ccnc3cc(OC)c(OC)cc23)c1` [Compound 45, 3-(6,7-Dimethoxy-quinolin-4-yloxy)-5'-methoxy-5,6-dimethyl-[2,3']bipyridine], the inhibition at 3 µM under setting [3] is 89%. In addition, the inhibition at 10 µM under setting [4] is 100%. For the compound `COc1cc2nccc(Oc3ccc(C)nc3-c3ccccc3O)c2cc1OC` [Compound r226], under setting [1], the inhibition at 3 µM was found to be 60%. Also, the inhibition at 10 µM under setting [2] stood at 96%. Taken in the same sequence, the figures for `COc1cc2c(Oc3cc(C)c(C)nc3-c3ccccn3)ccnc2cc1O` [Compound r338] were 92% and 100%. Taken in the same sequence, the figures for `CCCOC(=O)c1cc2ccccc2cc1Oc1ccnc2cc(OCCn3ccnc3)c(OC)cc12` [Compound r324] were 86% and 100%. Taken in the same sequence, the figures for `COc1cc2nccc(Oc3ccc(OCc4ccccc4)cc3C(C)=O)c2cc1OC` [Compound r175, 1-[5-Benzyloxy-2-(6,7-dimethoxy-quinotin-4-yloxy)-phenyl]-ethanone] were 13% and 60%. For `COc1cc2c(Oc3cc4ccccc4nc3C)ccnc2cc1NCCN1CCOCC1` [Compound r410, [6-Methoxy-4-(2-methyl-quinolin-3-yloxy)-quinolin-7-yl]-(2-morpholin-4-yl-ethyl)-amine], under setting [1], the inhibition at 3 µM is 91%. For the same compound, the inhibition at 10 µM under setting [2] came to 100%.

`CCOC(=O)c1ccccc1C(=O)c1ccnc2cc(OC)c(OC)cc12` [Compound r163, Ethyl 2-[(6,7-dimethoxy-4-quinolyl)carbonyl]benzoate]: under setting [5], the inhibition at 3 µM is 3%. The inhibition at 10 µM under setting [6] was 67%.

For the compound `COc1cc2c(Oc3ccc(C)cc3C(=O)c3ccccc3)ccnc2cc1OCC(O)Cn1ccnc1` (centres unmarked) [r160], the inhibition at 3 µM under setting [5] was determined as 98%. Also, the inhibition at 10 µM under setting [6] is 100%. In the case of `COc1cc2nccc(Oc3ccc(C)nc3-c3ccc(C(C)C)cc3)c2cc1OC` [Compound r243], the inhibition at 3 µM under setting [1] is -7%. In addition, the inhibition at 10 µM under setting [2] is 62%. On to `FC(F)(F)c1ccc2nccc(Oc3cc4cccnc4nc3-c3ccccc3)c2c1` [Compound 54, 2-Phenyl-3-(6-trifluoromethyl-quinolin-4-yloxy)-[1,8]naphthyridine], for which the inhibition at 3 µM under setting [3] is 76%. The inhibition at 10 µM under setting [4] was determined as 99%.

As for `COc1cc2nccc(Oc3ccc(C)nc3C(=O)c3ccccc3)c2cc1OC` [Compound r220], the inhibition at 3 µM under setting [1] turned out to be 99%. The inhibition at 10 µM under setting [2] came out at 100%. In the case of `COc1cc2nccc(Oc3cc4cccnc4nc3-c3ccc(C#N)cc3)c2cc1OC` [Compound 86, 4-[3-(6,7-Dimethoxy-quinolin-4-yloxy)-[1,8]naphthyridin-2-yl]-benzonitrile], under setting [3], the inhibition at 3 µM stood at 26%. In addition, the inhibition at 10 µM under setting [4] worked out at 74%.

Consider `COc1cc2nccc(Oc3cc4cccnc4nc3C)c2cc1OC` [Compound r310], for which the inhibition at 3 µM under setting [1] turned out to be 72%. Also, the inhibition at 10 µM under setting [2] came to 97%.

Take `COc1cc2nccc(Oc3cc(C)ccc3C(C)=O)c2cc1OC` [Compound r32]: the inhibition at 3 µM under setting [5] was found to be 81%. Under setting [6], the inhibition at 10 µM was found to be 98%.

For `COc1cc2nccc(Oc3cc(C)c(C)nc3-c3ccccn3)c2cc1OC(C)C` [Compound 120, 3-(6-Isopropoxy-7-methoxy-quinolin-4-yloxy)-5,6-dimethyl-[2,2']bipyridine], the inhibition at 3 µM under setting [3] was 94%. Moreover, under setting [4], the inhibition at 10 µM was 100%. Consider `CCc1ccc(Oc2ccnc3ccc(O)cc23)c(-c2ncccn2)n1` [Compound 191, 4-(6-Ethyl-2-pyrimidin-2-yl-pyridin-3-yloxy)-quinolin-6-ol], for which, under setting [3], the inhibition at 3 µM turned out to be 99%. Moreover, the inhibition at 10 µM under setting [4] was found to be 100%. On to `CCCCc1ccc(-c2nc(C)ccc2Oc2ccnc3cc(OC)c(OC)cc23)cc1` [Compound r244], for which the inhibition at 3 µM under setting [1] was -3%. In addition, the inhibition at 10 µM under setting [2] stood at 63%. In the case of `Cc1cc(Oc2ccnc3ccc(-c4cccc(N)c4)cc23)c(-c2ccccn2)nc1C` [Compound 10, 3-[4-(5,6-Dimethyl-[2,2']bipyridin-3-yloxy)-quinolin-6-yl]-phenylamine], under setting [3], the inhibition at 3 µM came out at 100%. Further, the inhibition at 10 µM under setting [4] came to 100%. Turning to `CCOC(=O)c1cc2cc(Oc3ccnc4cc(OC)c(OC)cc34)ccc2[nH]1` [Compound r22], under setting [5], the inhibition at 3 µM stood at 11%. Besides, the inhibition at 10 µM under setting [6] turned out to be 81%.

Take `CCOC(=O)c1cc(Cl)ccc1Oc1ccnc2cc(OC)c(OC)cc12` [Compound r84]: the inhibition at 3 µM under setting [5] came to 84%. For the same compound, the inhibition at 10 µM under setting [6] was determined as 100%. Turning to `COc1cc2nccc(Oc3ccc(C)nc3-c3cncnc3)c2cc1OC` [Compound r265], the inhibition at 3 µM under setting [1] came out at 45%. Further, the inhibition at 10 µM under setting [2] amounted to 85%. As for `COc1cc2nccc(Oc3ccc(Cl)cc3C(=O)Nc3ccc(Cl)c(Cl)c3)c2cc1OC` [Compound r107], the inhibition at 3 µM under setting [5] was 0%. For the same compound, the inhibition at 10 µM under setting [6] came out at 82%.

With `Cc1cc(Oc2ccnc3cc(OCc4ccccc4)ccc23)c(-c2ccccn2)nc1C` [Compound 137, 3-(7-Benzyloxy-quinolin-4-yloxy)-5,6-dimethyl-[2,2']bipyridine], the inhibition at 3 µM under setting [3] is 88%. Besides, the inhibition at 10 µM under setting [4] came to 100%. The matching figures for `COc1ccc2ncnc(Oc3cc(C)c(C)nc3-c3ccccn3)c2c1` [Compound 26, 4-(5,6-Dimethyl-[2,2']bipyridin-3-yloxy)-6-methoxy-quinazoline]: 83% and 99%. The matching figures for `Cc1cc(Oc2ncnc3ccc(Br)cc23)c(-c2ccccn2)nc1C` [Compound 25, 6-Bromo-4-(5,6-dimethyl-[2,2']bipyridin-3-yloxy)-quinazoline]: 89% and 99%. For the compound `COc1cc2nccc(Oc3ccc(C)nc3C)c2cc1OC` [Compound r209], the inhibition at 3 µM under setting [1] was determined as 99%. Further, under setting [2], the inhibition at 10 µM amounted to 100%. Turning to `c1cnc2nc(-c3csc4ccccc34)c(Oc3ccnc4ccccc34)cc2c1` [Compound 90, 2-Benzo[b]thiophen-3-yl-3-(quinolin-4-yloxy)-[1,8]naphthyridine], under setting [3], the inhibition at 3 µM turned out to be 22%. Moreover, the inhibition at 10 µM under setting [4] was 68%. The matching figures for `Cc1ccc(Oc2ccnc3ccc(OCCCN4CCC(Cc5ccccc5)CC4)cc23)c(-c2ncccn2)n1` [Compound 220, 6-[3-(4-Benzyl-piperidin-1-yl)-propoxy]-4-(6-methyl-2-pyrimidin-2-yl-pyridin-3-yloxy)-quinoline]: 91% and 100%. Taken in the same sequence, the figures for `Cc1ccc(Oc2ccnc3ccc(OCCCN4CCN(CCO)CC4)cc23)c(-c2ncccn2)n1` [Compound 221, 2-(4-{3-[4-(6-Methyl-2-pyrimidin-2-yl-pyridin-3-yloxy)-quinolin-6-yloxy]-propyl}-piperazin-1-yl)-ethano I] were 39% and 79%.

As to `COC(=O)COc1cc2nccc(Oc3cc4ccccc4nc3C)c2cc1OC` [Compound r371], under setting [1], the inhibition at 3 µM came out at 28%. In addition, the inhibition at 10 µM under setting [2] was determined as 90%. Take `COc1cc2c(Oc3ccc(C)cc3C(=O)c3ccccc3)ccnc2cc1OCCCCN1CCC(N2CCCCC2)CC1` [Compound r146]: under setting [5], the inhibition at 3 µM was found to be 64%. The inhibition at 10 µM under setting [6] was 100%. Regarding `COc1cc2c(Oc3cc4ccccc4nc3C)ccnc2cc1OCC(CO)(CO)CBr` [Compound r389], the inhibition at 3 µM under setting [1] worked out at 100%. Moreover, the inhibition at 10 µM under setting [2] was found to be 100%.

On to `COc1cc2nccc(Oc3ccc4ccccc4c3)c2cc1OC` [Compound r17], for which the inhibition at 3 µM under setting [5] is 15%. Further, the inhibition at 10 µM under setting [6] turned out to be 80%. As to `COc1cc2c(Oc3cc(C)c(C)nc3-c3ccccc3)ccnc2cc1OCC(CO)CO` [Compound r336], the inhibition at 3 µM under setting [1] came out at 100%.
